Experimental data as given in patent US6656497B2, “Liposomal vector for active-principle” (Lipogel, priority 1997, dated 2003).

Tests used:
[1] = massive oral administration of peptide; cited from earlier work
[2] = Passage of orally administered free calcitonin across the intestinal barrier; type: in vivo; conditions: 330 IU administered orally
Experimental: It is explained by the fact that during a massive administration of peptide such as calcitonin, a small percentage crosses the intestinal barrier (1%) without being denatured. In this case, 330 IU were administered, which corresponds to a lymphatic passage of 3.3 IU (passage from the intestinal lumen into the plasma, via the lymphatic canal pathway). However, the IV-route effect of calcitonin starts at 0.9 IU. It is thus normal to observe this effect of free calcitonin. The hypocalcaemia observed after oral administration of calcitonin decreases over time to return to the normal level after 90 min.

Compound: CC(C)C[C@H](NC(=O)[C@H](CCCCN)NC(=O)CNC(=O)[C@H](CC(C)C)NC(=O)[C@@H](NC(=O)[C@@H]1CSSC[C@H](N)C(=O)N[C@@H](CO)C(=O)N[C@@H](CC(N)=O)C(=O)N[C@@H](CC(C)C)C(=O)N[C@@H](CO)C(=O)N[C@@H]([C@@H](C)O)C(=O)N1)C(C)C)C(=O)N[C@@H](CO)C(=O)N[C@@H](CCC(N)=O)C(=O)N[C@@H](CCC(=O)O)C(=O)N[C@@H](CC(C)C)C(=O)N[C@@H](Cc1c[nH]cn1)C(=O)N[C@@H](CCCCN)C(=O)N[C@@H](CC(C)C)C(=O)N[C@@H](CCC(N)=O)C(=O)N[C@H](C(=O)N[C@@H](Cc1ccc(O)cc1)C(=O)N1CCC[C@H]1C(=O)N[C@@H](CCCNC(=N)N)C(=O)N[C@H](C(=O)N[C@@H](CC(N)=O)C(=O)N[C@H](C(=O)NCC(=O)N[C@@H](CO)C(=O)NCC(=O)N[C@H](C(=O)N1CCC[C@H]1C(N)=O)[C@@H](C)O)[C@@H](C)O)[C@@H](C)O)[C@@H](C)O [free calcitonin, salmon calcitonin]
- percentage crossing the intestinal barrier without being denatured [1]: 1%
- lymphatic passage (intestinal lumen into plasma via lymphatic canal pathway) [2]: 3.3 IU
